This series has as its target hERG (Homo sapiens, UniProt Q12809). The series is described as follows: Patch clamp assay (hERG tail currents, whole-cell).

These results are taken from patent US20240400564A1 (Syndax Pharmaceuticals, Inc, priority 2021, published 2024).

hERG, sequence (Q12809 whole entry): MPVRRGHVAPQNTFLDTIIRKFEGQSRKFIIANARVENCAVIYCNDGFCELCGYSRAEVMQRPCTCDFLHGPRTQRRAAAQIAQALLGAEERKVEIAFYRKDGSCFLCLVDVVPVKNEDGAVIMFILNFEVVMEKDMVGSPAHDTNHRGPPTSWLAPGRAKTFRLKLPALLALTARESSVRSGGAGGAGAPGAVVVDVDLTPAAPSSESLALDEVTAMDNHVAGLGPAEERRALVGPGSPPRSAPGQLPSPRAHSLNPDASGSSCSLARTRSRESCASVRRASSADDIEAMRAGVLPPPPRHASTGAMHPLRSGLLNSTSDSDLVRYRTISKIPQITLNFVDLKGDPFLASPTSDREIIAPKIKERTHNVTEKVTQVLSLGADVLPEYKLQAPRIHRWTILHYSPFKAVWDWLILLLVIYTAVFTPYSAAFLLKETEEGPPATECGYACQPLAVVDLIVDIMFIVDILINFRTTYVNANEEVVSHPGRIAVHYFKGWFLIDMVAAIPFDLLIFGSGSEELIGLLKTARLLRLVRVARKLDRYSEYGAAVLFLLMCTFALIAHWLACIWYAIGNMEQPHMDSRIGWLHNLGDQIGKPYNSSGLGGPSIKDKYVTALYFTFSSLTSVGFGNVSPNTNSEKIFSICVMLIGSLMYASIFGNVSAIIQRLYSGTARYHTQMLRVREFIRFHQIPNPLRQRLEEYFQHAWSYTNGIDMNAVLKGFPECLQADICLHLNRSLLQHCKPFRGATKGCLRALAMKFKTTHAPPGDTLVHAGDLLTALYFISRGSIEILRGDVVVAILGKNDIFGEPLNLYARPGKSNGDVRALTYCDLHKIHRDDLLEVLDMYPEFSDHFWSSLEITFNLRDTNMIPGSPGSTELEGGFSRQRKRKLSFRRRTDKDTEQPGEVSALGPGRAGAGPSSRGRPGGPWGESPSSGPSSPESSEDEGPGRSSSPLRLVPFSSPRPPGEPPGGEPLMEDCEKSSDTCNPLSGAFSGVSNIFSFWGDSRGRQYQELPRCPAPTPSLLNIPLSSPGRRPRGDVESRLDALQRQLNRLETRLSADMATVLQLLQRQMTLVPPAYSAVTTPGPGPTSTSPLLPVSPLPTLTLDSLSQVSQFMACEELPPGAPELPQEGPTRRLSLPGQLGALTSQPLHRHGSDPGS

For the compound `CCN(CC)S(=O)(=O)N[C@@H]1CC[C@@H](CN2CCC3(CC2)CN(c2ncncc2Oc2ccc(F)cc2C(=O)N(CC(F)F)C(C)C)C3)OC1` [Example 97, 2-((4-(7-(((2S,5R)-5-((N,N-Diethylsulfamoyl)amino)tetrahydro-2H-pyran-2-yl)methyl)-2,7-diazaspiro[3.5]nonan-2-yl)pyrimidin-5-yl)oxy)-N-(2,2-difluoroethyl)-5-fluoro-N-isopropylbenzamide], the “hERG % Remaining” value runs as follows: (10 μM compound) “++ (233% and ≤66%)”; (30 μM compound) “+ (<33%)”.
For `CC(C)N(CC(F)F)C(=O)c1cc(F)ccc1Oc1cncnc1N1CC2(CCN(C[C@@H]3CC[C@@H](NS(=O)(=O)N4CCC4)CO3)CC2)C1` [Example 99, 2-((4-(7-(((2S,5R)-5-(Azetidine-1-sulfonamido)tetrahydro-2H-pyran-2-yl)methyl)-2,7-diazaspiro[3.5]nonan-2-yl)pyrimidin-5-yl)oxy)-N-(2,2-difluoroethyl)-5-fluoro-N-isopropylbenzamide], the “hERG % Remaining” value (10 μM compound) is “+++ (≥66%)”; the “hERG % Remaining” value (30 μM compound) is “++ (233% and ≤66%)”.
In the case of `CC(C)N(CC(F)F)C(=O)c1cc(F)ccc1Oc1cncnc1N1CC2(CCN(C[C@@H]3CC[C@@H](NS(=O)(=O)N(C)C(C)C)CO3)CC2)C1` [Example 101, N-(2,2-Difluoroethyl)-5-fluoro-N-isopropyl-2-((4-(7-(((2S,5R)-5-((N-isopropyl-N-methylsulfamoyl)amino)tetrahydro-2H-pyran-2-yl)methyl)-2,7-diazaspiro[3.5]nonan-2-yl)pyrimidin-5-yl)oxy)benzamide], for the setting “30 μM compound”, the “hERG % Remaining” value was “+ (<33%)”.
As to `CNS(=O)(=O)N[C@@H]1CC[C@@H](CN2CCC3(CC2)CN(c2ncncc2Oc2ccc(F)cc2C(=O)N(CC(F)F)C(C)C)C3)OC1` [Example 102, N-(2,2-Difluoroethyl)-5-fluoro-N-isopropyl-2-((4-(7-(((2S,5R)-5-((N-methylsulfamoyl)amino)tetrahydro-2H-pyran-2-yl)methyl)-2,7-diazaspiro[3.5]nonan-2-yl)pyrimidin-5-yl)oxy)benzamide], the “hERG % Remaining” value (30 μM compound) is “+++ (≥66%)”.
Regarding `CC(C)N(CC(F)(F)F)C(=O)c1cc(F)ccc1Oc1cncnc1N1CC2(CCN(C[C@@H]3CC[C@@H](NS(=O)(=O)N(C)C)CO3)CC2)C1` [Example 107, 2-((4-(7-(((2S,5R)-5-((N,N-Dimethylsulfamoyl)amino)tetrahydro-2H-pyran-2-yl)methyl)-2,7-diazaspiro[3.5]nonan-2-yl)pyrimidin-5-yl)oxy)-5-fluoro-N-isopropyl-N-(2,2,2-trifluoroethyl)benzamide], the “hERG % Remaining” value reads like this: (10 μM compound) “+++ (≥66%)”; (30 μM compound) “++ (233% and ≤66%)”.
`CC(C)N(C(=O)c1cc(F)ccc1Oc1cncnc1N1CC2(CCN(C[C@@H]3CC[C@@H](NS(=O)(=O)C4CC4)CO3)CC2)C1)C1CC(F)(F)C1` [Example 111, 2-((4-(7-(((2S,5R)-5-(Cyclopropanesulfonamido)tetrahydro-2H-pyran-2-yl)methyl)-2,7-diazaspiro[3.5]nonan-2-yl)pyrimidin-5-yl)oxy)-N-(3,3-difluorocyclobutyl)-5-fluoro-N-isopropylbenzamide]: the “hERG % Remaining” value is “++ (233% and ≤66%)” (10 μM compound); “+ (<33%)” (30 μM compound).
In the case of `CC(C)N(C(=O)c1cc(F)ccc1Oc1cncnc1N1CC2(CCN(C[C@@H]3CC[C@@H](NS(=O)(=O)N(C)C)CO3)CC2)C1)C1CC(F)(F)C1` [Example 113, N-(3,3-Difluorocyclobutyl)-2-((4-(7-(((2S,5R)-5-((N,N-dimethylsulfamoyl)amino)tetrahydro-2H-pyran-2-yl)methyl)-2,7-diazaspiro[3.5]nonan-2-yl)pyrimidin-5-yl)oxy)-5-fluoro-N-isopropylbenzamide], the “hERG % Remaining” value (10 μM compound) was “+++ (≥66%)”; the “hERG % Remaining” value (30 μM compound) was “++ (233% and ≤66%)”.
